# Data: PubChem BioAssay (NCI)
#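 Briefly, cells in 96-well plates were exposed to five compound concentrations for 48 h, and endpoints were estimated by linear interpolation. The concentration for 50% growth inhibition is given as GI50. TGI marks complete inhibition of growth.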
# What was measured:
# Test in all cases: NCI tumour cell line growth inhibition, 48 h
# HL-60(TB) leukemia = tested on: HL-60(TB) leukemia
# HT29 colon = tested on: HT29 colon
# K-562 leukemia = tested on: K-562 leukemia
# MDA-MB-231 breast = tested on: MDA-MB-231 breast
# MDA-N = tested on: MDA-N
# T-47D breast = tested on: T-47D breast
# U251 CNS = tested on: U251 CNS
# KM20L2 colon = tested on: KM20L2 colon
# M19-MEL melanoma = tested on: M19-MEL melanoma
# DLD-1 colon = tested on: DLD-1 colon
# MCF7 breast = tested on: MCF7 breast
# XF 498 CNS = tested on: XF 498 CNS
# DMS 273 small cell lung = tested on: DMS 273 small cell lung
SMILES,TGI (HL-60(TB) leukemia),TGI (HT29 colon),TGI (K-562 leukemia),TGI (MDA-MB-231 breast),TGI (MDA-N),TGI (T-47D breast),TGI (U251 CNS),TGI (KM20L2 colon),TGI (M19-MEL melanoma),TGI (DLD-1 colon),TGI (MCF7 breast),TGI (XF 498 CNS),TGI (DMS 273 small cell lung),GI50 (HL-60(TB) leukemia),GI50 (K-562 leukemia),GI50 (MCF7 breast),GI50 (MDA-MB-231 breast),GI50 (MDA-N),GI50 (U251 CNS)
N=c1nc(N)nc(N)n1-c1ccc(S(N)(=O)=O)cc1,> 100 µM,> 100 µM,> 100 µM,> 100 µM,> 100 µM,> 100 µM,> 100 µM,–,–,–,–,–,–,–,–,–,–,–,–
CCOC(=O)C1=C(C)N2CCCOC2(C)C(C(=O)OC)C1c1cccc([N+](=O)[O-])c1 (stereo not drawn),> 100 µM,> 100 µM,> 100 µM,–,–,–,–,> 100 µM,> 100 µM,–,–,–,–,–,–,–,–,–,–
CN(C)CCNc1ccc2nnn3c4ccc(Cl)cc4c(=O)c1c23,19.9 µM,15.9 µM,22.7 µM,25.7 µM,16.9 µM,49.2 µM,6.72 µM,16 µM,15.1 µM,27.7 µM,96.2 µM,23.8 µM,–,–,–,–,–,–,–
COc1cc2c(cc1O)CCN[C@@]21CS[C@H]2c3c(OC(C)=O)c(C)c4c(c3C(COC1=O)N1C2C2c3c(cc(C)c(OC)c3O)CC([C@@H]1O)N2C)OCO4 (stereo partly drawn),< 1e-06 µM,–,1.54e-05 µM,0.0357 µM,0.0108 µM,> 1 µM,–,6.01e-05 µM,< 1e-06 µM,0.0013 µM,–,< 1e-06 µM,< 1e-06 µM,< 1 pM,< 1 pM,0.000277 µM,0.00325 µM,0.00247 µM,–
COc1cc2c(cc1OC)C(C1(O)CCCCC1)NCC2 (stereo not drawn),> 100 µM,> 100 µM,> 100 µM,–,–,–,> 100 µM,> 100 µM,> 100 µM,> 100 µM,–,> 100 µM,> 100 µM,–,–,–,–,–,–
N=C(N)SC1c2ccccc2-c2cc([N+](=O)[O-])ccc21 (stereo not drawn),11.9 µM,13.5 µM,22 µM,23.6 µM,10.9 µM,16.2 µM,8.95 µM,–,–,–,12.4 µM,–,–,–,–,–,–,–,–
Cc1ccc(NCCN(C)CC(C)O)c2c(=O)c3ccc(Cl)cc3sc12 (stereo not drawn),–,–,–,–,–,–,> 100 µM,–,–,–,> 100 µM,–,–,–,–,2.18 µM,–,–,3.68 µM
Cc1nnc2sc(-c3ccc(N)cc3)nn12,> 100 µM,> 100 µM,> 100 µM,> 100 µM,–,> 100 µM,–,–,–,–,> 100 µM,–,–,–,–,–,–,–,–
Nc1nc(Cl)cc(NCCCCO)n1,> 100 µM,> 100 µM,> 100 µM,–,–,–,> 100 µM,> 100 µM,> 100 µM,> 100 µM,–,–,> 100 µM,–,–,–,–,–,–
O=S(=O)(O)c1cc(O)c2c(O)c(N=Nc3ccc(/C=C/c4ccc(N=Nc5c(S(=O)(=O)O)cc6cc(S(=O)(=O)O)cc(O)c6c5O)cc4S(=O)(=O)O)c(S(=O)(=O)O)c3)c(S(=O)(=O)O)cc2c1,> 100 µM,> 100 µM,> 100 µM,–,–,–,> 100 µM,> 100 µM,> 100 µM,> 100 µM,–,> 100 µM,> 100 µM,–,–,–,–,–,–
